Experimental data published in PMC7481290, “Halogenation as a tool to tune antimicrobial activity of peptoids” (Scientific Reports, 2020).
In brackets after ≈: the same amount, converted by molar mass. Non-standard residues stand in square brackets, D forms with d. Residues, ends and D or L forms follow the SMILES beside them. N(4-Br-benzyl)Gly = O=C(O)CNCc1ccc(Br)cc1; NBzl(4-I)Gly = O=C(O)CNCc1ccc(I)cc1; Nphe = O=C(O)CNCc1ccccc1; Nlys = NCCCCNCC(=O)O

Tests used:
[1] = system: Methicillin-resistant S. epidermidis ATCC 51625; format: cell-based, Staphylococcus epidermidis; conditions: for Minimal inhibitory concentration MRSE^e: ATCC 51625, 18 h
Outline: (§1)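 Broth microdilution per CLSI in MHB II, final inoculum 5 × 10^5 CFU/mL, with twofold peptoid dilutions. Incubation was 18 h at 37 °C in ambient air. MIC was taken as the lowest concentration without visible growth, from two experiments on different days in technical triplicate.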

[2] = system: Methicillin-resistant S. epidermidis ET-024; format: cell-based, Staphylococcus epidermidis; conditions: for Minimal inhibitory concentration MRSE^d: Methicillin-resistant ET-024, 18 h
Outline: as §1

S. aureus ATCC 29213 = format: cell-based, Staphylococcus aureus; conditions: ATCC 29213, 18 h
Outline: as §1

S. aureus ATCC 25923 = format: cell-based, Staphylococcus aureus; conditions: for Minimal inhibitory concentration SA^a: ATCC 25923, 18 h
Outline: as §1

[3] = system: Methicillin-resistant S. aureus USA 300; format: cell-based, Staphylococcus aureus; conditions: USA 300, 18 h
Outline: as §1

E. coli ATCC 25922 = format: cell-based, Escherichia coli; conditions: ATCC 25922, 18 h
Outline: as §1

[4] = system: selected bacterial strains (S. aureus, S. epidermidis, E. coli, P. aeruginosa); format: cell-based; conditions: for MICs, range across strains: range matches Gram-positive strains of Table 1
Experimental: All 36 peptoids were tested against seven bacterial strains: five Gram-positive (Staphylococcus aureus ATCC 25923 and ATCC 29213, methicillin-resistant Staphylococcus aureus USA 300, methicillin-resistant Staphylococcus epidermidis ET-024 and ATCC 51625) and two Gram-negative (Escherichia coli ATCC 25922, Pseudomonas aeruginosa PA01) (Table 1).
Bacterial growth inhibition was determined by using broth microdilution according to the Clinical Laboratory Standards Institute[43]. The antibacterial activity of peptoids was tested against S. aureus ATCC 25923, ATCC29213, and methicillin resistant S. aureus USA 300, methicillin resistant S. epidermidis ATCC 51625, a biofilm producing methicillin resistant S. epidermidis ET-024[44], P. aeruginosa Pa01 (H103), and E. coli ATCC 25922. Bacteria, grown on agar plates for 18 h at 37 °C, were diluted to ∼1 × 10^8 CFU/mL in Mueller‐Hinton Broth II (MHB II). Twofold serial dilutions of peptoids in MHB II were inoculated with bacteria to achieve a final concentration of 5 × 10^5 CFU/mL in polypropylene 96 U‐well microtiter plates (Corning 3,897; ThermoFisher Scientific, Roskilde), followed by incubation at 37 °C in ambient air for 18 h. The MIC values were determined as the lowest concentration showing no visible bacterial growth. Experiments were performed twice (in technical triplicates) on 2 different days.

[5] = system: P. aeruginosa PA01 (H103); format: cell-based, Pseudomonas aeruginosa; conditions: H103, 18 h
Outline: as §1

[6] = Critical aggregation concentration from SAXS fit analysis; format: physicochemical
Experimental: SAXS experiments of the 10-mer peptoids were performed at the automated BM29 bioSAXS beamline at the European Synchrotron Radiation Facility (ESRF) in Grenoble, France[45]. The data was obtained using an energy of 12.5 keV and a detector distance of 2.87 m, covering a q range ( q=4πsin(θ/2)/λ ), where θ is the scattering angle and λ is the X-ray wavelength) of about 0.0047 to 0.5 Å^−1. The data set was calibrated to an absolute intensity scale using water as a primary standard. 40 µL samples were run through a capillary using the flow mode of the automated sample changer. SAXS data was collected in ten successive frames of 0.5 s each to monitor radiation damage and the data reduction was done using the standard tool at BM29[47].
The SAXS experiments on the fully iodinated 6-, 8-, and 12-mers to determine the CAC of the compounds were performed using a Bruker NANOSTAR equipped with a microfocus X-ray source (IμS Cu, Incoatec, Germany) and a VÅNTEC-2000 detector. Raw scattering data was calibrated to absolute intensity scale using water as a primary standard and radially averaged in order to obtain the 1D scattered intensity profile as a function of the scattering vector, with a wavelength of 1.54 Å.
The modelling fit analysis of the scattering data is explained in detail in the supplementary information.

NCCCCNCC(=O)N(CC(=O)N(CCCCN)CC(=O)N(CC(=O)N(CCCCN)CC(=O)N(CC(N)=O)Cc1ccccc1)Cc1ccccc1)Cc1ccccc1 [Compound 1] (H-[Nlys][Nphe][Nlys][Nphe][Nlys][Nphe]-NH2)
MIC against MRSE ([1]; text b15, strain not named, values match ATCC 51625): 512 µg/mL (≈ 607 µM) | Minimal inhibitory concentration MRSE^d [2]: 512 µg/mL (≈ 607 µM) | Minimal inhibitory concentration SA^b (S. aureus ATCC 29213): > 512 µg/mL | Minimal inhibitory concentration SA^a (S. aureus ATCC 25923): > 512 µg/mL | Minimal inhibitory concentration MRSA^c [3]: > 512 µg/mL | Minimal inhibitory concentration EC^f (E. coli ATCC 25922): > 512 µg/mL | antimicrobial potency against the selected bacterial strains, in words [4]: inactive | Minimal inhibitory concentration PA^g [5]: > 512 µg/mL

NCCCCNCC(=O)N(CC(=O)N(CCCCN)CC(=O)N(CC(=O)N(CCCCN)CC(=O)N(CC(=O)N(CCCCN)CC(=O)N(CC(N)=O)Cc1ccccc1)Cc1ccccc1)Cc1ccccc1)Cc1ccccc1 [Compound 10] (H-[Nlys][Nphe][Nlys][Nphe][Nlys][Nphe][Nlys][Nphe]-NH2)
Minimal inhibitory concentration MRSE^e [1]: 256 µg/mL (≈ 229 µM) | Minimal inhibitory concentration MRSE^d [2]: 256 µg/mL (≈ 229 µM) | Minimal inhibitory concentration SA^b (S. aureus ATCC 29213): > 512 µg/mL | Minimal inhibitory concentration SA^a (S. aureus ATCC 25923): > 512 µg/mL | Minimal inhibitory concentration MRSA^c [3]: > 512 µg/mL | Minimal inhibitory concentration EC^f (E. coli ATCC 25922): 256 µg/mL (≈ 229 µM) | antimicrobial potency against the selected bacterial strains, in words [4]: inactive | Minimal inhibitory concentration PA^g [5]: > 512 µg/mL

NCCCCNCC(=O)N(CC(=O)N(CCCCN)CC(=O)N(CC(=O)N(CCCCN)CC(=O)N(CC(=O)N(CCCCN)CC(=O)N(CC(=O)N(CCCCN)CC(=O)N(CC(N)=O)Cc1ccccc1)Cc1ccccc1)Cc1ccccc1)Cc1ccccc1)Cc1ccccc1 [Compound 19] (H-[Nlys][Nphe][Nlys][Nphe][Nlys][Nphe][Nlys][Nphe][Nlys][Nphe]-NH2)
Minimal inhibitory concentration MRSE^e [1]: 128 µg/mL (≈ 91.8 µM) | Minimal inhibitory concentration MRSE^d [2]: 128 µg/mL (≈ 91.8 µM) | Minimal inhibitory concentration SA^b (S. aureus ATCC 29213): > 512 µg/mL | Minimal inhibitory concentration SA^a (S. aureus ATCC 25923): > 512 µg/mL | Minimal inhibitory concentration MRSA^c [3]: > 512 µg/mL | Minimal inhibitory concentration EC^f (E. coli ATCC 25922): 256 µg/mL (≈ 184 µM) | antimicrobial potency against the selected bacterial strains, in words [4]: inactive | critical aggregation concentration (CAC) [6]: > 5 mg/mL | Minimal inhibitory concentration PA^g [5]: 512 µg/mL (≈ 367 µM)

NCCCCNCC(=O)N(CC(=O)N(CCCCN)CC(=O)N(CC(=O)N(CCCCN)CC(=O)N(CC(=O)N(CCCCN)CC(=O)N(CC(=O)N(CCCCN)CC(=O)N(CC(N)=O)Cc1ccc(Br)cc1)Cc1ccc(Br)cc1)Cc1ccc(Br)cc1)Cc1ccc(Br)cc1)Cc1ccc(Br)cc1 [Compound 22] (H-[Nlys][N(4-Br-benzyl)Gly][Nlys][N(4-Br-benzyl)Gly][Nlys][N(4-Br-benzyl)Gly][Nlys][N(4-Br-benzyl)Gly][Nlys][N(4-Br-benzyl)Gly]-NH2)
Minimal inhibitory concentration MRSE^e [1]: 1 µg/mL (≈ 0.559 µM) | Minimal inhibitory concentration MRSE^d [2]: 1 µg/mL (≈ 0.559 µM) | fold increase of activity against MRSE ([2]; versus non-halogenated control of same length, values match ET-024): 128 fold | Minimal inhibitory concentration SA^b (S. aureus ATCC 29213): 2 µg/mL (≈ 1.12 µM) | Minimal inhibitory concentration SA^a (S. aureus ATCC 25923): 2 µg/mL (≈ 1.12 µM) | fold increase of activity against S. aureus (S. aureus ATCC 25923; versus non-halogenated control of same length): > 256 fold | Minimal inhibitory concentration MRSA^c [3]: 4 µg/mL (≈ 2.24 µM) | Minimal inhibitory concentration EC^f (E. coli ATCC 25922): 64 µg/mL (≈ 35.8 µM) | MICs, range across strains [4]: 1 to 4 µg/mL | critical aggregation concentration (CAC) [6]: 2.3 mg/mL | Minimal inhibitory concentration PA^g [5]: > 512 µg/mL

NCCCCNCC(=O)N(CC(=O)N(CCCCN)CC(=O)N(CC(=O)N(CCCCN)CC(=O)N(CC(=O)N(CCCCN)CC(=O)N(CC(=O)N(CCCCN)CC(=O)N(CC(N)=O)Cc1ccc(I)cc1)Cc1ccc(I)cc1)Cc1ccc(I)cc1)Cc1ccc(I)cc1)Cc1ccc(I)cc1 [Compound 23] (H-[Nlys][NBzl(4-I)Gly][Nlys][NBzl(4-I)Gly][Nlys][NBzl(4-I)Gly][Nlys][NBzl(4-I)Gly][Nlys][NBzl(4-I)Gly]-NH2)
Minimal inhibitory concentration MRSE^e [1]: 8 µg/mL (≈ 3.95 µM) | Minimal inhibitory concentration MRSE^d [2]: 4 µg/mL (≈ 1.98 µM) | Minimal inhibitory concentration SA^b (S. aureus ATCC 29213): 32 µg/mL (≈ 15.8 µM) | Minimal inhibitory concentration SA^a (S. aureus ATCC 25923): 32 µg/mL (≈ 15.8 µM) | Minimal inhibitory concentration MRSA^c [3]: 16 µg/mL (≈ 7.91 µM) | Minimal inhibitory concentration EC^f (E. coli ATCC 25922): > 512 µg/mL | antimicrobial potency against the selected bacterial strains, in words [4]: the activity was lost | critical aggregation concentration (CAC) [6]: 0.4 mg/mL | Minimal inhibitory concentration PA^g [5]: > 512 µg/mL

NCCCCNCC(=O)N(CC(=O)N(CCCCN)CC(=O)N(CC(=O)N(CCCCN)CC(=O)N(CC(=O)N(CCCCN)CC(=O)N(CC(=O)N(CCCCN)CC(=O)N(CC(N)=O)Cc1ccc(Br)cc1)Cc1ccccc1)Cc1ccc(Br)cc1)Cc1ccccc1)Cc1ccc(Br)cc1 [Compound 26] (H-[Nlys][N(4-Br-benzyl)Gly][Nlys][Nphe][Nlys][N(4-Br-benzyl)Gly][Nlys][Nphe][Nlys][N(4-Br-benzyl)Gly]-NH2)
Minimal inhibitory concentration MRSE^e [1]: 1 µg/mL (≈ 0.613 µM) | Minimal inhibitory concentration MRSE^d [2]: 1 µg/mL (≈ 0.613 µM) | Minimal inhibitory concentration SA^b (S. aureus ATCC 29213): 4 µg/mL (≈ 2.45 µM) | Minimal inhibitory concentration SA^a (S. aureus ATCC 25923): 4 µg/mL (≈ 2.45 µM) | Minimal inhibitory concentration MRSA^c [3]: 8 µg/mL (≈ 4.91 µM) | Minimal inhibitory concentration EC^f (E. coli ATCC 25922): 256 µg/mL (≈ 157 µM) | MICs, range across strains [4]: 1 to 8 µg/mL | critical aggregation concentration (CAC) [6]: > 5 mg/mL | Minimal inhibitory concentration PA^g [5]: 512 µg/mL (≈ 314 µM)

NCCCCNCC(=O)N(CC(=O)N(CCCCN)CC(=O)N(CC(=O)N(CCCCN)CC(=O)N(CC(=O)N(CCCCN)CC(=O)N(CC(=O)N(CCCCN)CC(=O)N(CC(N)=O)Cc1ccc(I)cc1)Cc1ccccc1)Cc1ccc(I)cc1)Cc1ccccc1)Cc1ccc(I)cc1 [Compound 27] (H-[Nlys][NBzl(4-I)Gly][Nlys][Nphe][Nlys][NBzl(4-I)Gly][Nlys][Nphe][Nlys][NBzl(4-I)Gly]-NH2)
Minimal inhibitory concentration MRSE^e [1]: 1 µg/mL (≈ 0.565 µM) | Minimal inhibitory concentration MRSE^d [2]: 2 µg/mL (≈ 1.13 µM) | Minimal inhibitory concentration SA^b (S. aureus ATCC 29213): 4 µg/mL (≈ 2.26 µM) | Minimal inhibitory concentration SA^a (S. aureus ATCC 25923): 4 µg/mL (≈ 2.26 µM) | Minimal inhibitory concentration MRSA^c [3]: 4 µg/mL (≈ 2.26 µM) | Minimal inhibitory concentration EC^f (E. coli ATCC 25922): 128 µg/mL (≈ 72.3 µM) | critical aggregation concentration (CAC) [6]: > 5 mg/mL | Minimal inhibitory concentration PA^g [5]: > 512 µg/mL

NCCCCNCC(=O)N(CC(=O)N(CCCCN)CC(=O)N(CC(=O)N(CCCCN)CC(=O)N(CC(=O)N(CCCCN)CC(=O)N(CC(=O)N(CCCCN)CC(=O)N(CC(=O)N(CCCCN)CC(=O)N(CC(N)=O)Cc1ccccc1)Cc1ccccc1)Cc1ccccc1)Cc1ccccc1)Cc1ccccc1)Cc1ccccc1 [Compound 28] (H-[Nlys][Nphe][Nlys][Nphe][Nlys][Nphe][Nlys][Nphe][Nlys][Nphe][Nlys][Nphe]-NH2)
Minimal inhibitory concentration MRSE^e [1]: 32 µg/mL (≈ 19.2 µM) | Minimal inhibitory concentration MRSE^d [2]: 64 µg/mL (≈ 38.3 µM) | Minimal inhibitory concentration SA^b (S. aureus ATCC 29213): 512 µg/mL (≈ 307 µM) | Minimal inhibitory concentration SA^a (S. aureus ATCC 25923): > 512 µg/mL | Minimal inhibitory concentration MRSA^c [3]: 512 µg/mL (≈ 307 µM) | Minimal inhibitory concentration EC^f (E. coli ATCC 25922): 128 µg/mL (≈ 76.7 µM) | antimicrobial potency against the selected bacterial strains, in words [4]: inactive | Minimal inhibitory concentration PA^g [5]: 128 µg/mL (≈ 76.7 µM)
